Measured values: ChEMBL document CHEMBL4229404, “Druggability Assessment of Targets Used in Kinetic Target-Guided Synthesis” (J Med Chem, 2018)

How the values were obtained:
Chitinase B = biological target: T1, Chitinase B (Serratia marcescens, UniProt P11797); experiment: Inhibition of Serratia marcescens 6x-His-tagged ChiB after 20 hrs by LCMS-SIR analysis
T1 sequence (P11797 whole entry): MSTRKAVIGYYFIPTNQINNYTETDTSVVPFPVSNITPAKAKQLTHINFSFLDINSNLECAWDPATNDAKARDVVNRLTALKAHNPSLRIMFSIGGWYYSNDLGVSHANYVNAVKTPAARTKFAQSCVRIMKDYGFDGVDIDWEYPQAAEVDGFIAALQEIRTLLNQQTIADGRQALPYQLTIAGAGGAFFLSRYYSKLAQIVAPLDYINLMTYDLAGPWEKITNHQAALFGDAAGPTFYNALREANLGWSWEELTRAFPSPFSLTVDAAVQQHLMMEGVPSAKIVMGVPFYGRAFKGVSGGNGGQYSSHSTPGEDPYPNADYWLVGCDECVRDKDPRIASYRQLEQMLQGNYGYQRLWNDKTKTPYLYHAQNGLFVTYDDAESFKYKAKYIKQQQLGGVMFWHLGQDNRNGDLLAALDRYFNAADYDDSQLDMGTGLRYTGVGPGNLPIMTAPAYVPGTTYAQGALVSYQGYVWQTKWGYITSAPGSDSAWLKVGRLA

Homo sapiens = organism: Homo sapiens; experiment: Inhibition of human recombinant 14-3-3 protein at 300 uM after 8 hrs
[1] = biological target: HTH-type transcriptional regulator EthR (Mycobacterium tuberculosis, UniProt P9WMC1); experiment: Inhibition of Mycobacterium tuberculosis EthR
Carbonic anhydrase 2 = Carbonic anhydrase 2 (Homo sapiens, UniProt P00918); experiment: Inhibition of CA2 (unknown origin)
[2] = biological target: T2, Bifunctional ligase/repressor BirA (Staphylococcus aureus, UniProt A0A0E7NXW5); experiment: Inhibition of Staphylococcus aureus biotin protein ligase by LC/MS-SIM analysis
T2 sequence (A0A0E7NXW5 whole entry): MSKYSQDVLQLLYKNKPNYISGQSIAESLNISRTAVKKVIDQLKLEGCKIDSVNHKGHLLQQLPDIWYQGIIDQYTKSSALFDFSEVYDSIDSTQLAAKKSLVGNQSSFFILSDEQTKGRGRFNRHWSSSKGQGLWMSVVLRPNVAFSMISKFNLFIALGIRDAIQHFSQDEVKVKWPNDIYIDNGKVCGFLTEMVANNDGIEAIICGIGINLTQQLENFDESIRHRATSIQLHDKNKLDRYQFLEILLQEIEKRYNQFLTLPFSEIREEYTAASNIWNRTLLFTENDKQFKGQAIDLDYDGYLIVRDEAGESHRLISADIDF

Acetylcholinesterase = Acetylcholinesterase (Electrophorus electricus, UniProt O42275)
Chain of Acetylcholinesterase (O42275 whole entry): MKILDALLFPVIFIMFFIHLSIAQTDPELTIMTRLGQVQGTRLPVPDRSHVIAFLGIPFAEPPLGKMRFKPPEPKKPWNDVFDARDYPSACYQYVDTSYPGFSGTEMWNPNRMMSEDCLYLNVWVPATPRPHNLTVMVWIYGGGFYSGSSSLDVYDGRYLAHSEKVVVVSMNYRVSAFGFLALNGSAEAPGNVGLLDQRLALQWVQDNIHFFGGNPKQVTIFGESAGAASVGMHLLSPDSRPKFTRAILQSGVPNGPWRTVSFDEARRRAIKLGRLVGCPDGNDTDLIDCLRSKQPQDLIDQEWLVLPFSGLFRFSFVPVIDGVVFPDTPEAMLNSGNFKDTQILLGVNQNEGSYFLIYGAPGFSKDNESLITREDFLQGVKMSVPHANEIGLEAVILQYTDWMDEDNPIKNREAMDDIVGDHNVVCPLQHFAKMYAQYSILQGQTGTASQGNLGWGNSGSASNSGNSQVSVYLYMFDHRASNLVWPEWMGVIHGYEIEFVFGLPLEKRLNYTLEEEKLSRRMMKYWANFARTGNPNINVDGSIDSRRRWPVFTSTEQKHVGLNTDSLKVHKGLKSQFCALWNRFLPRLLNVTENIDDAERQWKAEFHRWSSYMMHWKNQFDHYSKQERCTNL
Description: Binding affinity to electric eel AChE after 24 hrs by LC/MS-SIM analysis

Chain of HTH-type transcriptional regulator EthR (P9WMC1 whole entry): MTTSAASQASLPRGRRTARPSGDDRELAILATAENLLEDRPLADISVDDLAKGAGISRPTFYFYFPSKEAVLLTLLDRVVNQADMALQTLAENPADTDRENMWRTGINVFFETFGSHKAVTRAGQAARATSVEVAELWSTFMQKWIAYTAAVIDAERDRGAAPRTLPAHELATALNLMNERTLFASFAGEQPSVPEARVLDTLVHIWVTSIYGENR

[H]/N=C(/NCCC[C@H](NC(=O)Cn1nncc1CO/N=C/c1ccnc2ccccc12)C(=O)N(Cc1ccccc1)Cc1ccccc1)NC(=O)NC
IC50 (Chitinase B): 0.022 µM

C=CC(C)(C)OC[C@H]1O[C@H](O[C@@H]2C3=C([C@H](C)CNC(=O)[C@H]4CO4)C[C@H](O)[C@]3(C)/C=C3/[C@@H](COC)CC[C@@]3(C)[C@@H](C)[C@H]2O)[C@H](O)[C@@H](O)[C@@H]1O
inhibition (Homo sapiens): 37%

O=C(Cn1cc(CNS(=O)(=O)c2ccc(I)cc2)nn1)N1CCC(c2nc(-c3cccs3)no2)CC1
IC50 [1]: 0.58 µM

CCOC(=O)c1cccc(CSCc2ccc(S(N)(=O)=O)cc2)c1
IC50 (Carbonic anhydrase 2): 0.059 µM

Nc1ncnc2c1ncn2CCCCn1cc(CCCCC[C@@H]2SC[C@@H]3NC(=O)N[C@@H]32)nn1
Ki [2]: 0.66 µM

CC[N+](C)(CC)CCC[n+]1c(-c2ccccc2)c2cc(N)ccc2c2ccccc21
Kd (Acetylcholinesterase): 1.1 µM
